Test results as given in paper PMC9832530 (FASEB BioAdvances, 2022).

Target: T1, drFtsZ (FtsZWT) (Deinococcus radiodurans, UniProt Q9RWN5)
T1 sequence (Q9RWN5 1-371): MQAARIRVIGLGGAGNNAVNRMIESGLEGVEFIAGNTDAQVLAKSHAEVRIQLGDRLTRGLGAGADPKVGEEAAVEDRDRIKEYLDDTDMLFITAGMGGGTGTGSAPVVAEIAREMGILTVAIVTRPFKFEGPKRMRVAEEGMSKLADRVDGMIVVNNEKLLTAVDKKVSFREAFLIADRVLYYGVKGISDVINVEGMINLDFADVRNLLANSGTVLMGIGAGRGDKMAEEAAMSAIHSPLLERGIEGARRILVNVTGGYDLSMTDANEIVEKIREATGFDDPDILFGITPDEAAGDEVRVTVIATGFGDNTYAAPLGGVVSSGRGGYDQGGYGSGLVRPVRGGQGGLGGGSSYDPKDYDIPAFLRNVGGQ
Assay: GTPase, [alpha-32P]-GTP to GDP by TLC
Format: biochemical
Conditions: 20 mM Tris-HCl pH 7.5, 75 mM KCl, MgCl2, 37 °C, 20 min; labelled compound

Nc1nc2c(ncn2[C@@H]2O[C@H](COP(=O)(O)OP(=O)(O)OP(=O)(O)O)[C@@H](O)[C@H]2O)c(=O)[nH]1 [GTP]
GTPase, [alpha-32P]-GTP to GDP by TLC: The GTPase activity of S235 and S335 mutants were estimated using thin‐layer chromatography
